# Results published in patent publication US20080274121A1, “Inhibition of Angiogenesis by Mithramycin” (priority 2007, published 2008).
# “Also recorded” adds a separate entry of the source.
# Assays:
# H727 cells = test: Viable cell count in vitro, H727; type: cell-based, human; settings: 0 to 100 μg/ml BVZ, 5 days
# Description: (§1) FIG. 18. Effects of treatment with BVZ and MIT on the growth of and gene expression in human carcinoid cells in vitro. A. H727 and BON-1 cells were incubated for 5 days in a medium alone or a medium containing 25 to 100 μg/ml BVZ. The viable cells were counted. B. H727 cells were incubated for 5 days in a medium alone or a medium containing 100 μg/ml BVZ. Total protein lysates were harvested from the cell cultures, and the level of Sp1 and VEGF protein expression was determined using Western blot analysis. Equal protein-sample loading was monitored by probing the same membrane filter with an anti-GAPDH. C. H727 and BON-1 cells were treated with MIT at concentrations ranging from 0.1 to 2.5 μM for 24 hours. Cytotoxicity was assessed using the MTT assay.
# (§2) Effects of treatment with BVZ and MIT on the growth of and gene expression in human LGNET cells. To further determine whether treatment with BVZ directly impacts gene expression in LGNET cells, we incubated H727 and BON-1 cells in a medium alone or a medium containing 0 to 100 μg/ml BVZ for 5 days.
# Sp1, VEGF, CD31 (MVD) = test: Gene expression and microvessel formation in PANC-1 tumor tissues; type: in vivo, nude mice
# Description: FIG. 13. Analysis of gene expression and microvessel formation in tumor tissues. The tumor tissues described in FIG. 2 were collected and processed as described in Materials and Methods. A, total protein lysates were harvested from tumor tissues, and the level of protein expression was determined using Western blot analysis. Equal protein-sample loading was monitored by probing the same membrane filter with an anti-β-actin antibody. NS, nonspecific. B, the levels of Sp1 and VEGF expression were quantitated and expressed as fold change. C, MVD was quantitated according to CD31 staining. D, immunohistochemical staining was performed using specific antibodies against Sp1, VEGF, and CD31. Representative photos of the stains are shown.
# Western blot analysis. Whole-cell lysates were prepared from human pancreatic cancer cell lines and tissues (23). Standard Western blotting was performed using polyclonal rabbit antibodies against human and mouse Sp1, VEGF, and EGFR (Santa Cruz Biotechnology, Santa Cruz, Calif.) and the anti-rabbit IgG antibody, a horseradish peroxidase-linked F(ab′)2 fragment obtained from a donkey (Amersham, Arlington Heights, Ill.). Equal protein-sample loading was monitored by probing the same membrane filter with antibodies against anti-β-actin or glyceraldehyde-3-phosphate dehydrogenase (GAPDH) (23). The probe proteins were detected using the Amersham enhanced chemiluminescence system according to the manufacturer's instructions.
# Immunohistochemical analysis and quantification of tumor MVD. For CD31 staining, frozen tissue sections (5 μm thick) were fixed in acetone. Endogenous peroxidase in the specimens was blocked using 3% hydrogen peroxide in phosphate-buffered saline (PBS) for 12 minutes. […] For quantification of tumor MVD, vessels on each section were counted in five high-power fields (magnification, ×200 [×20 objective and ×10 ocular]) as described previously (41). […]
# BxPC3 cells = test: BxPC3 subcutaneous xenograft, tumor volume and body weight; type: in vivo, nude mice
# Source text: FIG. 10. Dose-dependent antitumor effects of BVZ and MIT in xenograft models of human pancreatic cancer. […] C and D, the control mice and mice that received (C) BVZ and (D) MIT were weighed at the time of experiment termination, and the weights were expressed as the mean±SD.
# FIG. 11. Synergistic antitumor effects of treatment with BVZ and MIT in xenograft models of human pancreatic cancer. […] C, representative tumor sizes in each group of BxPC3 model mice.
# To determine whether this takes place, we treated pancreatic cancer in nude mice with BVZ, MIT, or a combination of the two (B+M). Specifically, we first performed dose-response experiments. We injected BxPC3 cells subcutaneously into nude mice.
# Next, we performed experiments using both BxPC3 and PANC-1 tumor cell models in which we administered PBS, BVZ (25 μg), MIT (0.10 mg/kg), or B+M to a group of nude mice.
# BON-1 cells = test: Viable cell count in vitro, BON-1; type: cell-based, human; settings: 0 to 100 μg/ml BVZ, 5 days
# Description: as §1, §2
substance,measurement,setting,value
bevacizumab [BVZ],cell growth in vitro,H727 cells,did not affect the growth
same,MVD,"Sp1, VEGF, CD31 (MVD); CD31 staining, low-dose BVZ or MIT alone",did not significantly reduce MVD
same,"expression of platelet-derived growth factor, IGF-R, and EGFR in tumor tissue","Sp1, VEGF, CD31 (MVD); Western blot, data not shown",upregulated the expression of other proangiogenic molecules
same,Sp1 and VEGF expression in tumor tissue,"Sp1, VEGF, CD31 (MVD); Western blot, mice treated with PBS, BVZ, MIT, or B+M (low doses)",increased expression of Sp1 and its downstream molecule VEGF
same,antitumor activity at low dose,"BxPC3 cells; BVZ 25 μg, MIT 0.10 mg/kg, or B+M",slight antitumor effects; also recorded: marginal antitumor activity
same,"antitumor activity, dose-response","BxPC3 cells; BVZ 25, 50, 100 μg, MIT 0.1, 0.2, 0.4 mg/kg, i.p. twice a week",suppressed human pancreatic cancer growth
same,body weight,"BxPC3 cells; BVZ alone, 25-100 μg",no discernable effect on body weight
same,cell growth in vitro,BON-1 cells,did not affect the growth
